Source: ChEMBL document CHEMBL1129544, “A structure-activity relationship study of novel phenylacetamides which are sodium channel blockers” (J Med Chem, 1996)

Molecular target: Sodium channel protein type 2 subunit alpha (Rattus norvegicus, UniProt P04775)
Experiment: Inhibitory activity against type IIA sodium channel in CNaIIA-1 cell line expressed in CHO cells
Type: cell-based

Sequence of Sodium channel protein type 2 subunit alpha (P04775 whole entry): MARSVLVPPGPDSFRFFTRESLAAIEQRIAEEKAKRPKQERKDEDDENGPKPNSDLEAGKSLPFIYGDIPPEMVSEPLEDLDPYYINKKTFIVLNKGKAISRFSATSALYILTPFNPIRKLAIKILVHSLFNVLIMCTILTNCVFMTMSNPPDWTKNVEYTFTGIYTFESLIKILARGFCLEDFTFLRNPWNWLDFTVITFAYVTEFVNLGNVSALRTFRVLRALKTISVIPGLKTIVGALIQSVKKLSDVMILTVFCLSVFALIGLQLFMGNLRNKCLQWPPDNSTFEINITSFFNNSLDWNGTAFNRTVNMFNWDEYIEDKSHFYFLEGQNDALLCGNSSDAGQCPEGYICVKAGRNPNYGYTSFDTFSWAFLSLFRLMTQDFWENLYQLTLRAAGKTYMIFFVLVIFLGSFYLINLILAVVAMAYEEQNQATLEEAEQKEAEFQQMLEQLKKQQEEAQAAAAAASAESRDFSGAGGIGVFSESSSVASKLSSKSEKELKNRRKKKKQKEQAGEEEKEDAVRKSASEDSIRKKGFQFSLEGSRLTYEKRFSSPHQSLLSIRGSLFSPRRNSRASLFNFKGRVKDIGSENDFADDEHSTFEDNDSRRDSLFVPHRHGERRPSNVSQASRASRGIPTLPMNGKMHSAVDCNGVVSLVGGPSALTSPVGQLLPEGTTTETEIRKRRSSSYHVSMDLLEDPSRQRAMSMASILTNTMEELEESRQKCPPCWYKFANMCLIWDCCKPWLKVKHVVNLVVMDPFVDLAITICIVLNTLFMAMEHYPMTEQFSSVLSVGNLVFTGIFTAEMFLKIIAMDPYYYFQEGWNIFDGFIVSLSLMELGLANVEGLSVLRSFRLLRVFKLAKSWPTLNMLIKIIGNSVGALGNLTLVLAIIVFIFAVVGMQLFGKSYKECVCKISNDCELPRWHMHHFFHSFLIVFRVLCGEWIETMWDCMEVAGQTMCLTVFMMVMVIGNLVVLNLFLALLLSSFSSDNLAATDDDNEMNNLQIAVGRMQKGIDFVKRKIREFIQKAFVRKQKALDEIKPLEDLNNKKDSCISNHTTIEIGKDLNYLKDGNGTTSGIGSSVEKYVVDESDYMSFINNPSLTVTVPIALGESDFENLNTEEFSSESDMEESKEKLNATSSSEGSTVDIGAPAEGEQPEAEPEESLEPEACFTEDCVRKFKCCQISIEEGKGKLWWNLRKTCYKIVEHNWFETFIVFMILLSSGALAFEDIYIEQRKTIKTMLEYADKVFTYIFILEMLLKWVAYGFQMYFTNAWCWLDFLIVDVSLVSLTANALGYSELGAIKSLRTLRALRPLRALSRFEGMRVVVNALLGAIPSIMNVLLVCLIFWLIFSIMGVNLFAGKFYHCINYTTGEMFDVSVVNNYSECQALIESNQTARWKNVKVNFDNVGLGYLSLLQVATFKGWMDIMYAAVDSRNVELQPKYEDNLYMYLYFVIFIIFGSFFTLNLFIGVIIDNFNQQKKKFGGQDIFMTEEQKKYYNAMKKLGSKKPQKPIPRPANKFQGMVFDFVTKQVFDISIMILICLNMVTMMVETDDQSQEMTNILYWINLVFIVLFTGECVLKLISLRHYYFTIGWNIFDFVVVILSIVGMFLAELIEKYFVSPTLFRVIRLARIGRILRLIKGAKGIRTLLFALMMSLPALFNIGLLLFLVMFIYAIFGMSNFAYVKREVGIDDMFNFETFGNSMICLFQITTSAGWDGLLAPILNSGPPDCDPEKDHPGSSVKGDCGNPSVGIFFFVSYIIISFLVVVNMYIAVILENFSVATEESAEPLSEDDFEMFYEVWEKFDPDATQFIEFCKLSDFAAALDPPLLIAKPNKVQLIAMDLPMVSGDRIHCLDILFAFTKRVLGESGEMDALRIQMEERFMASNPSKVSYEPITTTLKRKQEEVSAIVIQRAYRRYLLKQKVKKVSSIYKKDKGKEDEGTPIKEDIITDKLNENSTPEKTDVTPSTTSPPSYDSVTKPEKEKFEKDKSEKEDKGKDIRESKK

Row | Structure (SMILES) | IC50 [µM]
1 | O=C(NCCCN1CCC(Cc2ccccc2)CC1)C(c1ccccc1)c1ccccc1 | 0.6
2 | O=C(NCCCN1CCC(O)(c2ccccc2)CC1)C(c1ccccc1)c1ccccc1 | 2.2
3 | CN(CCCNC(=O)C(c1ccccc1)c1ccccc1)Cc1ccccc1 | 1.2
4 | O=C(NCCCN1CCN(Cc2ccccc2)CC1)C(c1ccccc1)c1ccccc1 | 0.7
5 | CC1CN(CCCNC(=O)C(c2ccccc2)c2ccccc2)CC(C)O1 (stereo not drawn) | 2.7
6 | O=C(NCCCN1CCC(n2c(=O)[nH]c3ccccc32)CC1)C(c1ccccc1)c1ccccc1 | 0.72
7 | O=C(NCCCN1CCC(c2ccccc2)CC1)C(c1ccccc1)c1ccccc1 | 1.1
8 | CCN(CC)CCCNC(=O)C(c1ccccc1)c1ccccc1 | 4.4
9 | O=C(NCCCN1CCC(Oc2ccccc2)CC1)C(c1ccccc1)c1ccccc1 | 1.4
10 | CN1CCCC1CCNC(=O)C(c1ccccc1)c1ccccc1 (stereo not drawn) | 32
11 | O=C(NCCCCN1CCCCC1)C(c1ccccc1)c1ccccc1 | 10
12 | COc1ccccc1N1CCN(CCCNC(=O)C(c2ccccc2)c2ccccc2)CC1 | 1.2
13 | O=C(NC1CN2CCC1CC2)C(c1ccccc1)c1ccccc1 (stereo not drawn) | 95
14 | O=C(NCCN1CCCCC1)C(c1ccccc1)c1ccccc1 | 7.2
15 | CC(CNC(=O)C(c1ccccc1)c1ccccc1)CN1CCC(c2ccccc2)CC1 (stereo not drawn) | 1.5
16 | CN1CCN(CCCNC(=O)C(c2ccccc2)c2ccccc2)CC1 | > 200
17 | CN(C)CCCNC(=O)C(c1ccccc1)c1ccccc1 | 20
18 | O=C(NCCCN1CCOCC1)C(c1ccccc1)c1ccccc1 | 6.5
19 | CN(C)CCCN(C)C(=O)C(c1ccccc1)c1ccccc1 | > 200
20 | O=c1[nH]c2ccccc2n1C1CCN(CCCC(c2ccc(F)cc2)c2ccc(F)cc2)CC1 [PIMOZIDE] | 0.34
21 | O=C(NCCCN1CCCCC1)C(c1ccccc1)c1ccccc1 | 5.3
22 | CC1CCC(C)N1CCCNC(=O)C(c1ccccc1)c1ccccc1 (stereo not drawn) | 4.6
23 | NCCCNC(=O)C(c1ccccc1)c1ccccc1 | 40
